From paper PMC3546862, “Assessing the utility of an anti-malarial pharmacokinetic-pharmacodynamic model for aiding drug clinical development” (Malaria Journal, 2012)
≈ marks a conversion by molar mass, not a printed value. Like-named read-outs stand apart in the source and are kept apart here. Marks after values point to notes of the source that are not given here.

Columns and labels:
[1] = system: fresh P. falciparum parasite isolates; assay: In vitro drug susceptibility, schizont maturation test (WHO guidelines) on fresh patient isolates; format: cell-based; conditions: for IC50: Plasmodium falciparum; for γ, mean on loge scale of log-normal distribution lnN(μ ln, σ ln): first parameter of lnN; for γ (Slope of concentration-effect curve): in vitro
Protocol: (§1) The fresh P. falciparum parasite isolates were obtained from blood samples of 487 patients attending outpatient clinics in Papua, Indonesia between 2004 and 2010 [26]. The in vitro drug susceptibility was determined using the World Health Organization guidelines for schizont maturation tests. The in vitro data for artemether were measured at the Swiss Tropical and Public Health Institute (Switzerland; Basel) against asynchronous intraerythrocytic forms of the P. falciparum strain NF54 (obtained from MR4) using the [3H]-hypoxanthine incorporation assay.

0.5% Albumax in RPMI = 0.5% Albumax in RPMI (Bos taurus, UniProt P02769); assay: Binding to in vitro testing media by ultracentrifugation; format: in vitro ADME; conditions: ultracentrifugation 4.2 hours at 37°C
Protocol: (§2) Estimates of drug binding to the in vitro testing media (i.e. 0.5% Albumax in RPMI) and human plasma were determined using ultracentrifugation. Briefly, blank Albumax media and plasma were each spiked with compound and divided into six aliquots; three aliquots were subjected to ultracentrifugation (Beckman Optima XL-100K Ultracentrifuge, Rotor type 42.2 Ti; 223,000 x g) for 4.2 hours at 37°C to pellet the proteins whereas the remaining three aliquots served as controls and were incubated at 37°C for the same time period but without centrifugation. Controls were also stored at −20°C to confirm sample stability over the centrifugation period. Aliquots of the supernatants from the ultracentrifuged samples were first diluted 1:1 in acetonitrile, assayed by LC-MS and the responses compared to a calibration curve prepared in 50% aqueous acetonitrile to determine the unbound (i.e. free) concentration. Control concentrations in each matrix were determined using LC-MS by first precipitating the proteins with acetonitrile (3:1 acetonitrile: matrix) and then comparing the responses to a calibration curve from a blank matrix prepared using the same protein precipitation procedure. The free fraction in each matrix was then determined from the ratio of the average unbound (e.g. free) concentration to the average total concentration in each matrix.

human plasma protein = assay: Human plasma protein binding by ultracentrifugation; format: in vitro ADME; conditions: ultracentrifugation 4.2 hours at 37°C
Protocol: as §2

[2] = Whole blood to plasma partitioning ratio (B/P); format: in vitro ADME; conditions: human, whole blood and plasma; 37°C, 2 min incubation
Protocol: The whole blood to plasma partitioning ratio (B/P) was determined by spiking aliquots of whole blood or plasma maintained at 37°C with compound, incubating for 2 min, and then centrifuging the whole blood sample to obtain the plasma fraction. Both the plasma fraction of whole blood and the plasma control were assayed for compound by LC-MS as described above. The blood to plasma ratio was calculated from the ratio of the concentration in the plasma control (used as a surrogate for the total whole blood concentration since whole blood assays were not available for each compound) to that in the plasma fraction of whole blood. The two-minute time point was used to avoid confounding issues due to potential blood instability; rapid equilibration between plasma and erythrocytes was assumed.

P. falciparum [3] = assay: Parasite reduction ratio from published clinical data and kmax calculated from it; format: in vivo; conditions: kmax = 1/KZ x ln PRR + 1/48 x ln PMF, PMF = 10
Description: (§3) The maximal killing rate (kmax) of the drug was assumed to follow a triangular distribution. The middle values were taken from published clinical data. Piperaquine was the only drug with no clinical studies of it administered as a monotherapy and the mode was set to a value equal to that derived from in vitro experiments. The minimum and maximum values of the triangular distribution for each anti-malarial correspond to a 50-fold decrease and 50-fold increase in the number of parasites killed every 48 hours.

[4] = cited from earlier work
P. falciparum [5] = conditions: every 48 hours; published clinical data; cited from earlier work
P. falciparum [6] = system: P. falciparum; set-up: method as in PMID 2648881; conditions: assumed; cited from earlier work
[7] = system: P. falciparum strain NF54; assay: [3H]-hypoxanthine incorporation assay, asynchronous intraerythrocytic forms; format: cell-based; conditions: for IC50: Plasmodium falciparum
Protocol: as §1

P. falciparum [8] = assay: Parasite reduction ratio from in vitro killing rate experiments and kmax calculated from it; format: cell-based; conditions: kmax = 1/KZ x ln PRR + 1/48 x ln PMF, PMF = 10; PRR from in vitro experiments
Description: as §3

ring stage parasites = system: ring stage parasites; set-up: method as in PMID 21173254; conditions: patients with delayed PCTs; cited from earlier work
[9] = geometric mean, adjusted to whole blood, lower limit a of EC50 distribution, read-out: IC50 (adjusted) concentration
[10] = geometric mean, not corrected for binding, isolates of 487 patients, Papua, Indonesia, read-out: IC50 measured concentration
[11] = not corrected for binding, from nM and molecular weight, read-out: IC50 concentration

Chain of 0.5% Albumax in RPMI (P02769 25-607): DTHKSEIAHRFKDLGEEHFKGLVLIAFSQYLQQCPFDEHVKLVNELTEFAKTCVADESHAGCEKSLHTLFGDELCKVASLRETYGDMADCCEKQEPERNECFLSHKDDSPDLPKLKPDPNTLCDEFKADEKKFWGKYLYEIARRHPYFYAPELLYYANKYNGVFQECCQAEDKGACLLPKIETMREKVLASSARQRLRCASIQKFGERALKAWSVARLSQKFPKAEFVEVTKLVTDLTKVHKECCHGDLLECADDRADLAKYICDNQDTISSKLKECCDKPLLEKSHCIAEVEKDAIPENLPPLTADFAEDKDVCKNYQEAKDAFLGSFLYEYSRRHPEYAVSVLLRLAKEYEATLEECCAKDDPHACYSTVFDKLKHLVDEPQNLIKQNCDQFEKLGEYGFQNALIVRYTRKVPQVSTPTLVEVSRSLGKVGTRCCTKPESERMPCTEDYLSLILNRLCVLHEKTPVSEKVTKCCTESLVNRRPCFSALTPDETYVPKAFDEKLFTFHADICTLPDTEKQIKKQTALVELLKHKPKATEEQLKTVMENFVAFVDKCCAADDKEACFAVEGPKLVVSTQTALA

Row | IC50 [1, 9] | IC50 [1, 10] | IC50 [1, 11] | Binding to media of in vitro experiment (0.5% Albumax) (0.5% Albumax in RPMI) | Human plasma protein binding (human plasma protein) | blood plasma ratio at 2 min [2] | Structure (SMILES) | γ, mean on loge scale of log-normal distribution lnN(μ ln, σ ln) [1] | γ (Slope of concentration-effect curve) [1] | kmax, mode c of triangular distribution TRI(a, b, c) (P. falciparum [3]) | CL/F (clearance) [4] | ka (absorption rate constant) [4] | KZ (length of the killing zone) (P. falciparum [6]) | V/F (volume of distribution) [4] | further results
1 | 1.75 ng/mL | 0.0134 µM | 7.1 ng/mL | 99.6 % bound | 98.7 % bound | 0.8 | CCCCN(CCCC)CC(O)c1cc(Cl)cc2c1-c1ccc(Cl)cc1/C2=C/c1ccc(Cl)cc1 (stereo not drawn) [LF, lumefantrine] | lnN (0.81, 0.58) | 2.24 | TRI(0.18, 0.54, 0.36)^c /h | 7.04 L/h | 0.17 h⁻¹ | 22 h |  | Q/F (inter-compartmental clearance) [4]: 4.08 L/h; Vc/F (volume of central compartment) [4]: 103 L; Vp/F (volume of peripheral compartment) [4]: 272 L; PRR (parasite reduction ratio) (P. falciparum [5]): 10^3
2 | 11.6 ng/mL | 0.0177 µM | 9.46 ng/mL | 98.1 % bound | 98.6 % bound | 0.9 | Clc1ccc2c(N3CCN(CCCN4CCN(c5ccnc6cc(Cl)ccc56)CC4)CC3)ccnc2c1 [PQ, piperaquine] |  | 3.48 |  |  |  | 24 h |  | kmax, mode c of triangular distribution TRI(a, b, c) (P. falciparum [8]): TRI(0.33, 0.65, 0.49)^c /h; CL/F (clearance) ([4]; 48kg individual): 66 L/h; Q/F (inter-compartmental clearance) ([4]; 48kg individual): 131 L/h; Vc/F (volume of central compartment) ([4]; 48kg individual): 8660 L; Vp/F (volume of peripheral compartment) ([4]; 48kg individual): 24000 L; ka (absorption rate constant) ([4]; 48kg individual): 0.717 h⁻¹
3 | 21 ng/mL | 0.00934 µM | 3.53 ng/mL | 85 % bound | 95.6 % bound |  | OC(c1cc(C(F)(F)F)nc2c(C(F)(F)F)cccc12)C1CCCCN1 (stereo not drawn) [MQ, mefloquine] | lnN (0.97, 0.54) | 2.63 | TRI(0.11, 0.46, 0.28)^c /h |  |  | 22 h | 10.2^f L/kg | IC50 (adjusted) concentration ([1]; geometric mean, adjusted to whole blood, lower limit a of EC50 distribution): 20.48 ng/mL (≈ 0.0541 µM)

Continued, compound first:

Row | Structure (SMILES) | IC50 [1, 9] | IC50 [1, 10] | IC50 [1, 11] | Binding to media of in vitro experiment (0.5% Albumax) (0.5% Albumax in RPMI) | Human plasma protein binding (human plasma protein) | blood plasma ratio at 2 min [2] | γ, mean on loge scale of log-normal distribution lnN(μ ln, σ ln) [1] | γ (Slope of concentration-effect curve) [1] | kmax, mode c of triangular distribution TRI(a, b, c) (P. falciparum [3]) | CL/F (clearance) [4] | ka (absorption rate constant) [4] | KZ (length of the killing zone) (P. falciparum [6]) | V/F (volume of distribution) [4] | further results
4 | CO[C@H]1O[C@@H]2O[C@@]3(C)CC[C@H]4[C@H](C)CC[C@@H]([C@H]1C)[C@@]24OO3 [ART, artemether] |  |  |  | 82.8 % bound | 91.7 % bound | 0.8 |  |  | TRI(0.12, 0.33, 0.22)^c /h | 180 L/h | 0.37 h⁻¹ | 38 h | 217 L | IC50 ([7]; adjusted to whole blood, lower limit a of EC50 distribution, read-out: IC50 (adjusted) concentration): 4.38 ng/mL (≈ 0.0147 µM); IC50 ([7]; not corrected for binding, read-out: IC50 concentration): 2.64 ng/mL (≈ 0.00885 µM); γ, mean on loge scale of log-normal distribution lnN(μ ln, σ ln) ([7]; first parameter of lnN): lnN(1.53, 0.31); γ (Slope of concentration-effect curve) ([7]; in vitro): 4.61
5 | C[C@H]1[C@H](OC(=O)CCC(=O)O)O[C@@H]2O[C@@]3(C)CC[C@H]4[C@H](C)CC[C@@H]1[C@@]24OO3 [artesunate] |  |  |  |  |  |  |  |  |  |  |  |  |  | Maximal killing rate for the ring stages, mean (ring stage parasites): 62 % /cycle
